From ChEMBL document CHEMBL5236619, “Design and Optimization of 1H-1,2,3-Triazole-4-carboxamides as Novel, Potent, and Selective Inverse Agonists and Antagonists of PXR” (J Med Chem, 2022)

Tests used:
[1] = target: T1, Nuclear receptor subfamily 1 group I member 2 (Homo sapiens, UniProt O75469); assay: Inhibition of BODIPY FL vindoline binding to recombinant human GST-tagged PXR LBD (111 to 434 residues) expressed in baculovirus infected insect cells incubated for 1 mins under shaking condition followed by 60 mins under dark condition by TR-FRET assay; settings: for inhibition (INH): human, 1.017 h, time 61 min
T1 sequence (O75469 whole entry): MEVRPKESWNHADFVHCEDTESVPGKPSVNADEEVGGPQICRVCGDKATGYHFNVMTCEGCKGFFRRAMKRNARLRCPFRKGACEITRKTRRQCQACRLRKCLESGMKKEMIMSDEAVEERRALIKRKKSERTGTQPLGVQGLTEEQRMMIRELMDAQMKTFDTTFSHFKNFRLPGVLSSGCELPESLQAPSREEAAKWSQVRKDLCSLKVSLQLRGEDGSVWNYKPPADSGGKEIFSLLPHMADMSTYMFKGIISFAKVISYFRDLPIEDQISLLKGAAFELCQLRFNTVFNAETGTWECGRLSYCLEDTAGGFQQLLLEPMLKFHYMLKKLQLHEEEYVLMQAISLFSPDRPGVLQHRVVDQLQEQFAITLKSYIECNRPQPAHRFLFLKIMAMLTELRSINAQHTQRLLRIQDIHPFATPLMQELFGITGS

[2] = target: T1, Nuclear receptor subfamily 1 group I member 2; assay: Agonist activity at human PXR in human HepG2 cells co-expressing luciferase gene under control of CYP3A4 promoter assessed as transcriptional activation at 10 uM incubated for 24 hrs by luminescence based analysis relative to control
[3] = target: T1, Nuclear receptor subfamily 1 group I member 2; assay: Inverse agonist activity at human PXR in human HepG2 cells co-expressing luciferase gene under control of CYP3A4 promoter assessed as inhibition in receptor basal activity at 30 uM incubated for 24 hrs by luminescence based analysis; settings: hepg2, 24 h
[4] = target: T1, Nuclear receptor subfamily 1 group I member 2; assay: Antagonist activity at human PXR in human HepG2 cells co-expressing luciferase gene under control of CYP3A4 promoter assessed as inhibition in rifampicin-induced receptor activation at 30 uM incubated for 24 hrs by luminescence based analysis; format: cell-based; settings: hepg2, 24 h
[5] = target: T2, PXR (NR1I2) ligand binding domain (Homo sapiens, UniProt O75469); assay: Inhibition of BODIPY FL vindoline binding to recombinant human GST-tagged PXR LBD (111 to 434 residues) expressed in baculovirus infected insect cells at 10 uM incubated for 1 mins under shaking condition followed by 60 mins under dark condition by TR-FRET assay relative to control; settings: probe BODIPY FL vindoline, time 61 min
T2 sequence (O75469 whole entry): T1 sequence (O75469 whole entry)

[6] = target: T1, Nuclear receptor subfamily 1 group I member 2; assay: Agonist activity at human PXR in human HepG2 cells co-expressing luciferase gene under control of CYP3A4 promoter assessed as transcriptional activation at 30 uM incubated for 24 hrs by luminescence based analysis; format: cell-based; settings: hepg2, 24 h
[7] = target: T3, PXR (NR1I2) (Homo sapiens, UniProt O75469); assay: Inverse agonist activity at human PXR in human HepG2 cells co-expressing luciferase gene under control of CYP3A4 promoter assessed as inhibition in receptor basal activity at 10 uM incubated for 24 hrs by luminescence based analysis relative to control; format: cell-based
T3 sequence (O75469 whole entry): T1 sequence (O75469 whole entry)

[8] = target: T3, PXR (NR1I2); assay: Antagonist activity at human PXR in human HepG2 cells co-expressing luciferase gene under control of CYP3A4 promoter assessed as inhibition in rifampicin-induced receptor activation at 10 uM incubated for 24 hrs by luminescence based analysis relative to control; format: cell-based
[9] = target: T1, Nuclear receptor subfamily 1 group I member 2; assay: Agonist activity at human PXR in human HepG2 cells co-expressing luciferase gene under control of CYP3A4 promoter assessed as transcriptional activation incubated for 24 hrs by luminescence based analysis

Structure (SMILES)	inhibition (INH) [1]	INH [3]	inhibition (INH) [4]	inhibition at 1.017 h, 10 µM [5]	Activity [6]	other results
CCCCOc1ccc(C(C)(C)C)cc1NC(=O)c1nnn(-c2cc(OC)ccc2Br)c1C		Not Active	Not Active	28%	Not Active	
COc1ccc(OC)c(-n2nnc(C(=O)Nc3cccc(N(C)C)c3)c2C)c1		Not Active	Not Active	49%	Not Active	
CCCCOc1ccc(NC(=O)c2nnn(-c3cc(OC)ccc3OC)c2C)cc1C(C)(C)C	Not Active					inhibition at 24 h, 10 µM [7]: 73%
COc1ccc(OC)c(-n2nnc(C(=O)Nc3cccc(N4CCN(C)CC4)c3)c2C)c1	Not Active	Not Active	Not Active		Not Active	
COc1ccc(OC)c(-n2nnc(C(=O)Nc3ccnc(C(C)(C)C)c3)c2C)c1	Not Active		Not Active		Not Active	
CCCCN(CCCC)c1cc(NC(=O)c2nnn(-c3cc(OC)ccc3OC)c2C)cc(C(C)(C)C)c1					Not Active	inhibition at 24 h, 10 µM [8]: 82%
CCC[C@@H](C)Oc1ccc(C(C)(C)C)cc1NC(=O)c1nnn(-c2cc(OC)ccc2OC)c1C				81%	Not Active	inhibition at 24 h, 10 µM [7]: 91%
CCCC(C)Oc1ccc(C(C)(C)C)cc1NC(=O)c1nnn(-c2cc(OC)ccc2OC)c1C (racemic)				90%	Not Active	inhibition at 24 h, 10 µM [7]: 117%
COc1ccc(OC)c(-n2nnc(C(=O)Nc3cccc(C)c3)c2C)c1		Not Active	Not Active	52%		activity at 24 h, 10 µM [2]: 30%
CCC[C@@H](C)Oc1ccc(C(C)(C)C)cc1NC(=O)c1nnn(-c2cc(C)ccc2OC)c1C		Not Active				IC50 [1]: 0.011 µM; EC50 [9]: 0.0081 µM
COc1ccc(OC)c(-n2nnc(C(=O)Nc3ccc(NC(C)=O)c(C(C)(C)C)c3)c2C)c1		Not Active	Not Active	65%		EC50 [9]: 2 µM; activity at 24 h, 10 µM [2]: 50%
COc1ccc(OC)c(-n2nnc(C(=O)Nc3cc(C(C)(C)C)ccc3NC(C)=O)c2C)c1		Not Active	Not Active	60%		activity at 24 h, 10 µM [2]: 60%
CCCOc1ccc(C(C)(C)C)cc1NC(=O)c1nnn(-c2cc(OC)ccc2OC)c1C				79%	Not Active	inhibition at 24 h, 10 µM [7]: 114%
CCCCOc1ccc(C(C)(C)C)cc1NC(=O)c1nnn(-c2cc(OC)ccc2F)c1C		Not Active	Not Active	18%		
COc1ccc(OC)c(-n2nnc(C(=O)Nc3ccccc3)c2C)c1	Not Active	Not Active	Not Active			EC50 [9]: 25 µM; activity at 24 h, 10 µM [2]: 33%
CCCCOc1ccc(C(C)(C)C)cc1NC(=O)c1nnn(-c2cccnc2)c1C		Not Active	Not Active	75%		

The next lines start with results.

inhibition (INH) [1]	INH [3]	inhibition (INH) [4]	inhibition at 1.017 h, 10 µM [5]	Activity [6]	Structure (SMILES)	other results
Not Active	Not Active	Not Active			CCCCOc1ccc(C(C)(C)C)cc1NC(=O)c1nnn(-c2cc(OC)cc(OC)c2)c1C	activity at 24 h, 10 µM [2]: 32%
	Not Active	Not Active	24%	Not Active	COc1ccc(OC)c(-n2nnc(C(=O)Nc3cccc(-n4cccc4)c3)c2C)c1	
Not Active	Not Active	Not Active			CCCCOc1ccc(C(C)(C)C)cc1NC(=O)c1nnn(-c2ccc3c(c2)OCO3)c1C	activity at 24 h, 10 µM [2]: 43%
			67%	Not Active	COc1ccc(OC)c(-n2nnc(C(=O)Nc3cc(B4OC(C)(C)C(C)(C)O4)cc(C(C)(C)C)c3)c2C)c1	inhibition at 24 h, 10 µM [7]: 138%; inhibition at 24 h, 10 µM [8]: 104%
	Not Active	Not Active	10%		CCCCOc1ccc(C(C)(C)C)cc1NC(=O)c1nnn(-c2cc(OC)ccc2C)c1C	EC50 [9]: 1.66 µM; activity at 24 h, 10 µM [2]: 16%
Not Active	Not Active	Not Active			COc1ccc(OC)c(-n2nnc(C(=O)Nc3cc(C(C)(C)C)ccc3N)c2C)c1	activity at 24 h, 10 µM [2]: 25%
	Not Active	Not Active	49%	Not Active	CCc1cccc(NC(=O)c2nnn(-c3cc(OC)ccc3OC)c2C)c1	
Not Active	Not Active	Not Active			CCCCOc1ccc(C(C)(C)C)cc1NC(=O)c1nnn(-c2ccc(OC)c(OC)c2)c1C	
	Not Active	Not Active	86%		COc1ccc(OC)c(-n2nnc(C(=O)Nc3ccc(N)c(C(C)(C)C)c3)c2C)c1	activity at 24 h, 10 µM [2]: 33%
Not Active	Not Active	Not Active		Not Active	CCCCOc1ccc(C(C)(C)C)cc1NC(=O)c1nnn(-c2ccncc2)c1C	
Not Active		Not Active			COc1ccc(OC)c(-n2nnc(C(=O)Nc3nc4ccccc4n3C)c2C)c1	
Not Active	Not Active	Not Active		Not Active	CCCCOc1ccc(C(C)(C)C)cc1NC(=O)c1nnn(-c2ccc(OC)cc2)c1C	
				Not Active	COc1ccc(OC)c(-n2nnc(C(=O)Nc3cc(N(C)C)cc(C(C)(C)C)c3)c2C)c1	inhibition at 24 h, 10 µM [8]: 110%
Not Active	Not Active	Not Active		Not Active	COc1ccc(OC)c(-n2nnc(C(=O)Nc3cccc(N4CCOCC4)c3)c2C)c1	
				Not Active	CNc1cc(NC(=O)c2nnn(-c3cc(OC)ccc3OC)c2C)cc(C(C)(C)C)c1	inhibition at 24 h, 10 µM [8]: 109%
		Not Active	50%	Not Active	COc1ccc(OC)c(-n2nnc(C(=O)Nc3cccc(N4CCCCC4)c3)c2C)c1	inhibition at 24 h, 10 µM [7]: 36%
			73%	Not Active	CCOc1ccc(C(C)(C)C)cc1NC(=O)c1nnn(-c2cc(OC)ccc2OC)c1C	inhibition at 24 h, 10 µM [7]: 118%
	Not Active				CCCCOc1ccc(C(C)(C)C)cc1NC(=O)c1nnn(-c2c(OC)cccc2OC)c1C	activity at 24 h, 10 µM [2]: 45%
			90%	Not Active	CCCCOc1ccc(C(C)(C)C)cc1NC(=O)c1nnn(-c2cc(OC)ccc2OC)c1C	inhibition at 24 h, 10 µM [7]: 89%
	Not Active	Not Active	84%	Not Active	COc1ccc(OC)c(-n2nnc(C(=O)Nc3cc(C(C)(C)C)ccc3O)c2C)c1	
